Data published in PMC7347136 (PLoS ONE, 2020).

Legend:
Assay in all cases: Carna kinase panel screen
Assay type in all cases: biochemical
Conditions in all cases: read-out: % Inhibition ± SD
[1] = biological target: T1, SYK (Homo sapiens, UniProt P43405)
T1 construct: purchased Carna Biosciences
Method in brief: (§1)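 Each compound was tested at 10 concentrations with ATP set close to its Km value. Percentage inhibition at each concentration was calculated and the IC50 derived by four-parameter logistic fitting.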

[2] = biological target: T2, MAPKAPK2 (Homo sapiens, UniProt P49137)
T2 construct: purchased Carna Biosciences
Method in brief: (§2)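 10-pt curves; [ATP] ~Km; IC50 by 4PL fit of % inhibition.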

[3] = biological target: T3, PAK2 (Homo sapiens, UniProt Q13177)
T3 construct: purchased Carna Biosciences
Method in brief: as §2

[4] = biological target: T4, MUSK (Homo sapiens, UniProt O15146)
T4 construct: purchased Carna Biosciences
Method in brief: as §2

[5] = biological target: T5, LCK (Homo sapiens, UniProt P06239)
T5 construct: purchased Carna Biosciences
Method in brief: as §2

[6] = biological target: T6, p38g (Homo sapiens, UniProt P53778)
T6 construct: purchased Carna Biosciences
Method in brief: as §2

[7] = biological target: T7, ABL[T315I] (Homo sapiens, UniProt P00519, T315I)
T7 construct: purchased Carna Biosciences
Method in brief: as §2

[8] = biological target: T8, CaMK4 (Homo sapiens, UniProt Q16566)
T8 construct: purchased Carna Biosciences
Method in brief: as §2

[9] = biological target: T9, MSK1 (Homo sapiens, UniProt O75582)
T9 construct: purchased Carna Biosciences
Method in brief: as §2

[10] = biological target: T10, MAP2K2 (Homo sapiens, UniProt P36507)
T10 construct: purchased Carna Biosciences
Method in brief: as §2

[11] = biological target: T11, LOK (Homo sapiens, UniProt O94804)
T11 construct: purchased Carna Biosciences
Method in brief: as §2

[12] = biological target: T12, EphB4 (Homo sapiens, UniProt P54760)
T12 construct: purchased Carna Biosciences
Method in brief: as §2

[13] = biological target: T13, MER (Homo sapiens, UniProt Q12866)
T13 construct: purchased Carna Biosciences
Method in brief: as §2

[14] = biological target: T14, JNK3 (Homo sapiens, UniProt P53779)
T14 construct: purchased Carna Biosciences
Method in brief: as §2

[15] = biological target: T15, FLT4 (Homo sapiens, UniProt P35916)
T15 construct: purchased Carna Biosciences
Method in brief: as §2

[16] = biological target: T16, PIM1 (Homo sapiens, UniProt P11309)
T16 construct: purchased Carna Biosciences
Method in brief: as §2

[17] = biological target: T17, TAK1 (Homo sapiens, UniProt O43318)
T17 construct: purchased Carna Biosciences
Method in brief: as §2

[18] = biological target: T18, AurB (Homo sapiens, UniProt Q96GD4)
T18 construct: purchased Carna Biosciences
Method in brief: as §2

[19] = biological target: T19, PKCh (Homo sapiens, UniProt P24723)
T19 construct: purchased Carna Biosciences
Method in brief: as §2

[20] = biological target: T20, MARK4 (Homo sapiens, UniProt Q96L34)
T20 construct: purchased Carna Biosciences
Method in brief: as §2

[21] = biological target: T21, MAP4K2 (Homo sapiens, UniProt Q12851)
T21 construct: purchased Carna Biosciences
Method in brief: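 Inhibition was measured across ten compound concentrations at Km-approximating ATP. A four-parameter logistic curve fitted to the percentage-inhibition data yields the IC50.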

[22] = biological target: T22, PKD1 (Homo sapiens, UniProt Q15139)
T22 construct: purchased Carna Biosciences
Method in brief: as §1

[23] = biological target: T23, ROCK2 (Homo sapiens, UniProt O75116)
T23 construct: purchased Carna Biosciences
Method in brief: as §2

[24] = biological target: T24, DAPK1 (Homo sapiens, UniProt P53355)
T24 construct: purchased Carna Biosciences
Method in brief: as §1

[25] = biological target: T25, PKD2 (Homo sapiens, UniProt Q9BZL6)
T25 construct: purchased Carna Biosciences
Method in brief: as §2

[26] = biological target: T26, LYNa (Homo sapiens, UniProt P07948)
T26 construct: purchased Carna Biosciences
Method in brief: as §2

[27] = biological target: T27, LTK (Homo sapiens, UniProt P29376)
T27 construct: purchased Carna Biosciences
Method in brief: as §2

[28] = biological target: T28, IRR (Homo sapiens, UniProt P14616)
T28 construct: purchased Carna Biosciences
Method in brief: as §1

[29] = biological target: T29, PDGFRa (Homo sapiens, UniProt P16234)
T29 construct: purchased Carna Biosciences
Method in brief: as §2

[30] = biological target: T30, FMS (Homo sapiens, UniProt P07333)
T30 construct: purchased Carna Biosciences
Method in brief: as §2

[31] = biological target: T31, MAP2K3 (Homo sapiens, UniProt P46734)
T31 construct: purchased Carna Biosciences
Method in brief: as §1

[32] = biological target: T32, EphA3 (Homo sapiens, UniProt P29320)
T32 construct: purchased Carna Biosciences
Method in brief: as §2

[33] = biological target: T33, NEK9 (Homo sapiens, UniProt Q8TD19)
T33 construct: purchased Carna Biosciences
Method in brief: as §2

[34] = biological target: T34, ITK (Homo sapiens, UniProt Q08881)
T34 construct: purchased Carna Biosciences
Method in brief: as §1

[35] = biological target: T35, CK1a (Homo sapiens, UniProt P48729)
T35 construct: purchased Carna Biosciences
Method in brief: as §2

[36] = biological target: T36, FGFR3 (Homo sapiens, UniProt P22607)
T36 construct: purchased Carna Biosciences
Method in brief: as §2

[37] = biological target: T37, EphB1 (Homo sapiens, UniProt P54762)
T37 construct: purchased Carna Biosciences
Method in brief: as §2

[38] = biological target: T38, DDR2 (Homo sapiens, UniProt Q16832)
T38 construct: purchased Carna Biosciences
Method in brief: as §2

[39] = biological target: T39, CDK3 (Homo sapiens, UniProt Q00526)
T39 construct: purchased Carna Biosciences
Method in brief: as §2

[40] = biological target: T40, EphA5 (Homo sapiens, UniProt P54756)
T40 construct: purchased Carna Biosciences
Method in brief: as §2

[41] = biological target: T41, MGC42105 (Homo sapiens, UniProt Q8IY84)
T41 construct: purchased Carna Biosciences
Method in brief: as §1

[42] = biological target: T42, MAP2K7 (Homo sapiens, UniProt O14733)
T42 construct: purchased Carna Biosciences
Method in brief: as §2

[43] = biological target: T43, IGF1R (Homo sapiens, UniProt P08069)
T43 construct: purchased Carna Biosciences
Method in brief: as §1

T43 sequence (P08069 31-1367): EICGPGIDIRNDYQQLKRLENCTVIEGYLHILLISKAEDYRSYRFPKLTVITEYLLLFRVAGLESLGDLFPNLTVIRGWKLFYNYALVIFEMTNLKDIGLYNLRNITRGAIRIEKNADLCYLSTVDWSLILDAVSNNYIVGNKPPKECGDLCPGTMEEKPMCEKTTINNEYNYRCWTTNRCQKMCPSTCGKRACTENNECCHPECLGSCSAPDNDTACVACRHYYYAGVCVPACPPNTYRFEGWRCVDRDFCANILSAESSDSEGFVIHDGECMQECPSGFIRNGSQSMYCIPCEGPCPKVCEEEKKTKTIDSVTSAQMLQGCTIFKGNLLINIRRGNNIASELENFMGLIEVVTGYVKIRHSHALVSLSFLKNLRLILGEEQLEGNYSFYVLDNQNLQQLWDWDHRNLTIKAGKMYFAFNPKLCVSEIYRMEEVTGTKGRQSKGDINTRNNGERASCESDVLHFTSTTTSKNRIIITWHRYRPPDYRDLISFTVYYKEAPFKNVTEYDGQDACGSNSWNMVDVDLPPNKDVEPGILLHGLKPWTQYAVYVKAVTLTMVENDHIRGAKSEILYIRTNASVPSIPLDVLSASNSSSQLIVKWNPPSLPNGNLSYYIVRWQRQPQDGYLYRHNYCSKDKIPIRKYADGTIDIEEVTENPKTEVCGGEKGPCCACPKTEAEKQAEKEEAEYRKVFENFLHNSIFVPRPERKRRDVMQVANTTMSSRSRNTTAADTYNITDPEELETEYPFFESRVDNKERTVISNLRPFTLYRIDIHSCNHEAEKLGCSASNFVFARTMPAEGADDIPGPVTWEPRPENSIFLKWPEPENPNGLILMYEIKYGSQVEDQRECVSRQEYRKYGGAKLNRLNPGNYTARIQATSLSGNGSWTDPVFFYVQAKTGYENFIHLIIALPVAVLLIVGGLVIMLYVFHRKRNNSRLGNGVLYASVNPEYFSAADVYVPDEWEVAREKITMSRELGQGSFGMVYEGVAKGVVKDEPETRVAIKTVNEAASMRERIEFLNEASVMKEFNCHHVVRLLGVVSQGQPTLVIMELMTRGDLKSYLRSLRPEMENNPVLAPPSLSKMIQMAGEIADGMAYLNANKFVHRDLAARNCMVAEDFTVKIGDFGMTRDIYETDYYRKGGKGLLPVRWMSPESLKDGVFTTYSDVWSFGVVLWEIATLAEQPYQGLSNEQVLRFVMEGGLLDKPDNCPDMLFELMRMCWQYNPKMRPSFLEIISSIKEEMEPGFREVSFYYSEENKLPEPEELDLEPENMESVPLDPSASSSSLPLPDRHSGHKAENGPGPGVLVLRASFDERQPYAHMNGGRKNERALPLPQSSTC
T3 sequence (Q13177 whole entry): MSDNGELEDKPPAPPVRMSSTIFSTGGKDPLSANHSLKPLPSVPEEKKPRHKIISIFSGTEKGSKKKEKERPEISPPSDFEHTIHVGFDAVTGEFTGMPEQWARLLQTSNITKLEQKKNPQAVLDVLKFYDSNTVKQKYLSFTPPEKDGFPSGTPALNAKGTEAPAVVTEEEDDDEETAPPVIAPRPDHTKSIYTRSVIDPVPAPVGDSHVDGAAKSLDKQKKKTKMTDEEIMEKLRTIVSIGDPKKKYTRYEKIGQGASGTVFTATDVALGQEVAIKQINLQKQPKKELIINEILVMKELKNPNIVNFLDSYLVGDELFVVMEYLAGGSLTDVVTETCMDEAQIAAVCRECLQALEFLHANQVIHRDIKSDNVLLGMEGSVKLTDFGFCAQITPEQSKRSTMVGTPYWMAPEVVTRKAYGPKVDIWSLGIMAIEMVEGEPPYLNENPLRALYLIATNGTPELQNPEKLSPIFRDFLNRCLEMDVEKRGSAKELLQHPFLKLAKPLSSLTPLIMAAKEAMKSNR
T40 sequence (P54756 25-1037): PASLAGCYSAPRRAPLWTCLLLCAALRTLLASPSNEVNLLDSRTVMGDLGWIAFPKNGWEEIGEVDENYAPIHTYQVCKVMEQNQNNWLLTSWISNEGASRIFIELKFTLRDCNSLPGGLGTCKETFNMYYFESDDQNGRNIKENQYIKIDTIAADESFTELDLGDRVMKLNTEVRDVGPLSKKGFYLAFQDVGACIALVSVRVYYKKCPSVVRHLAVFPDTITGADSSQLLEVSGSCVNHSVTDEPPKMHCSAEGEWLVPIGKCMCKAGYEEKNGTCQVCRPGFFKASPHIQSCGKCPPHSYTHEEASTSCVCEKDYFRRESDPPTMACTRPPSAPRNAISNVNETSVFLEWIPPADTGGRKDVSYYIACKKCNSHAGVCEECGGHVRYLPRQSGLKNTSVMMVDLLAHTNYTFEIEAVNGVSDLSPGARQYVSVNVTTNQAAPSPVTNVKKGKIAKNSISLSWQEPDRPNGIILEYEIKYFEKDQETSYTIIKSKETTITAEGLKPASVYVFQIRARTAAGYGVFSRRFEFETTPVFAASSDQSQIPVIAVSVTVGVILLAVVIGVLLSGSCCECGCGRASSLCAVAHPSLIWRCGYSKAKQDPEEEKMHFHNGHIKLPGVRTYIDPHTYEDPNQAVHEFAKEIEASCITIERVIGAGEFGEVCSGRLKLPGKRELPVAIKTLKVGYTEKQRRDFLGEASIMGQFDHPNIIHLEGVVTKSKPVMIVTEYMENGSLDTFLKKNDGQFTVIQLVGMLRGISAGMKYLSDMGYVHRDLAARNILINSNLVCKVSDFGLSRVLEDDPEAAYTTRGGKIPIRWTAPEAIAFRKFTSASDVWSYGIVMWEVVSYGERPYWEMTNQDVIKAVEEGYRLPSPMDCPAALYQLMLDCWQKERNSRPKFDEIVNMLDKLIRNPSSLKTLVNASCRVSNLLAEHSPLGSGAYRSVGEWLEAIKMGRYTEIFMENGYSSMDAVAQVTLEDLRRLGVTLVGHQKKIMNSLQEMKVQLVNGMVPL
T23 sequence (O75116 whole entry): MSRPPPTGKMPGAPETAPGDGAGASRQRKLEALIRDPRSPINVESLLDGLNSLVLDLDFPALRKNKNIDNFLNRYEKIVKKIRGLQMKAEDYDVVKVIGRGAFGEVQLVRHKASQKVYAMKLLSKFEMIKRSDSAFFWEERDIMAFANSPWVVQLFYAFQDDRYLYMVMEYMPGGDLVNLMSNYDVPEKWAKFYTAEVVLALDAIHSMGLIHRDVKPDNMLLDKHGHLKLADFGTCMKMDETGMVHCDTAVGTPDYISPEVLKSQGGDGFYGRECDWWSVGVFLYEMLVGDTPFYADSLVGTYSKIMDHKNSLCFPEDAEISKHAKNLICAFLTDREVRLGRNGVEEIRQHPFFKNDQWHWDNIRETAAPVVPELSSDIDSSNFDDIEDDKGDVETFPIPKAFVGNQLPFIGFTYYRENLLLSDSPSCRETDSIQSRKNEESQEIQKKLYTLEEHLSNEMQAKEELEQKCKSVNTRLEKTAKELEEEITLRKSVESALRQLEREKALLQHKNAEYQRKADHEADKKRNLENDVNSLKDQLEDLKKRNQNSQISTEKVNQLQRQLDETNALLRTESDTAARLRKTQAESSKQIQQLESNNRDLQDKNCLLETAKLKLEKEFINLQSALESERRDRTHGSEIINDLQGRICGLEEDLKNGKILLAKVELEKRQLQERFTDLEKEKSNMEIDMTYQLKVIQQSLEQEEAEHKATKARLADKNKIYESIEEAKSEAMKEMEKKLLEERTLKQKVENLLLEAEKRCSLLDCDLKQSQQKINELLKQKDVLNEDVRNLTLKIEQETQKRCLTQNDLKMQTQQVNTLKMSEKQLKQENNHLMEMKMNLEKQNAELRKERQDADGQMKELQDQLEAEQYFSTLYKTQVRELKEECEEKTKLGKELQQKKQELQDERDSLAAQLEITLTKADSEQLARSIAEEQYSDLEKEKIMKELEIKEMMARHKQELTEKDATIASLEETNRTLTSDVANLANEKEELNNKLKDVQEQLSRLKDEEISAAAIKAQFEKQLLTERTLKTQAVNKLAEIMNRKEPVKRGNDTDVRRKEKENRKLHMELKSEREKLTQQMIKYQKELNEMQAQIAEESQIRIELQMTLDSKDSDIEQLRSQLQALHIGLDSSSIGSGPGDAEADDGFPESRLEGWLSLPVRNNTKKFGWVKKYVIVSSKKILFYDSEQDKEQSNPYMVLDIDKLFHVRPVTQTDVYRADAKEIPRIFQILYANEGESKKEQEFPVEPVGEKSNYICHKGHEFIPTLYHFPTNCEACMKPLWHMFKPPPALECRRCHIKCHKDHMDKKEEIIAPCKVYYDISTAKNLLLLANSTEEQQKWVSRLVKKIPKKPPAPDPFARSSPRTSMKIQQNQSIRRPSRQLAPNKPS
T16 sequence (P11309 whole entry): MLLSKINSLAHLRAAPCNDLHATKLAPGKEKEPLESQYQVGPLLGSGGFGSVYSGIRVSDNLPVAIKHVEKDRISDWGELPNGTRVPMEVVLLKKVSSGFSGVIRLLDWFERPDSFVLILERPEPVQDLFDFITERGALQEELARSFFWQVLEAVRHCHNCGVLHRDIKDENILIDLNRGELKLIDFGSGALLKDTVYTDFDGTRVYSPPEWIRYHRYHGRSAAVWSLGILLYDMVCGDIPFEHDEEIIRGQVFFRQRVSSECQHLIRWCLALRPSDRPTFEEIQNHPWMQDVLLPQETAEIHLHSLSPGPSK
T31 sequence (P46734 whole entry): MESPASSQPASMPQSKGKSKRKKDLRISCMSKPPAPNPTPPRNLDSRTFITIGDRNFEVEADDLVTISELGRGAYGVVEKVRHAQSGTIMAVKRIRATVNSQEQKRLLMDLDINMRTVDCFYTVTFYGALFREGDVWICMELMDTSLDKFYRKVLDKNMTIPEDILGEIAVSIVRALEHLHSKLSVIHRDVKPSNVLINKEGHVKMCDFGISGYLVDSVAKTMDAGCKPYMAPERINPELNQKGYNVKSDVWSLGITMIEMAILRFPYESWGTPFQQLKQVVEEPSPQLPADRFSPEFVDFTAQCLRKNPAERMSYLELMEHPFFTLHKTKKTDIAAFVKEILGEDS

Structure (SMILES): CC[C@H](Nc1nc(NCc2cnc(C)cc2C)c2ncn(C(C)C)c2n1)[C@@H](C)O [Fadraciclib, 2-pentanol, 3-[[6-[[(4,6-dimethyl-3-pyridinyl)methyl]amino]-9-(1-methylethyl)-9Hpurin-2-yl]amino]-, (2R,3S)]
- inhibition at 1 µM [1]: 2.2 ± 0.1%
- inhibition at 1 µM [2]: -8.6 ± 0.1%
- inhibition at 1 µM [3]: -2.9%
- inhibition at 1 µM [4]: 11.4 ± 0.3%
- inhibition at 1 µM [5]: -7.3 ± 0.1%
- inhibition at 1 µM [6]: -0.6%
- inhibition at 1 µM [7]: -13 ± 0.1%
- inhibition at 1 µM [8]: -4.8 ± 0.1%
- inhibition at 1 µM [9]: 5.5 ± 0.4%
- inhibition at 1 µM [10]: 4.1%
- inhibition at 1 µM [11]: -23.8 ± 0.3%
- inhibition at 1 µM [12]: 3.6 ± 0.1%
- inhibition at 1 µM [13]: -9.1 ± 0.1%
- inhibition at 1 µM [14]: 10.6 ± 0.6%
- inhibition at 1 µM [15]: 6.3 ± 0.2%
- inhibition at 1 µM [16]: 7.4 ± 0.1%
- inhibition at 1 µM [17]: 0.3%
- inhibition at 1 µM [18]: 4.2 ± 0.2%
- inhibition at 1 µM [19]: -6.1 ± 0.1%
- inhibition at 1 µM [20]: -5.1 ± 0.4%
- inhibition at 1 µM [21]: 2 ± 0.1%
- inhibition at 1 µM [22]: 12.4 ± 0.5%
- inhibition at 1 µM [23]: 4.2%
- inhibition at 1 µM [24]: -8.8 ± 0.1%
- inhibition at 1 µM [25]: -13.4 ± 0.6%
- inhibition at 1 µM [26]: 2.2 ± 0.1%
- inhibition at 1 µM [27]: 6.6 ± 0.1%
- inhibition at 1 µM [28]: -5.5%
- inhibition at 1 µM [29]: 5.8 ± 0.2%
- inhibition at 1 µM [30]: -6.3 ± 0.1%
- inhibition at 1 µM [31]: -12.3 ± 0.3%
- inhibition at 1 µM [32]: 1.6 ± 0.1%
- inhibition at 1 µM [33]: -23.1 ± 0.2%
- inhibition at 1 µM [34]: 2.3 ± 0.1%
- inhibition at 1 µM [35]: 8.2 ± 0.3%
- inhibition at 1 µM [36]: -5.6 ± 0.2%
- inhibition at 1 µM [37]: 3.9 ± 0.1%
- inhibition at 1 µM [38]: -9.9 ± 0.1%
- inhibition at 1 µM [39]: 95.9%
- inhibition at 1 µM [40]: 4.9 ± 0.2%
- inhibition at 1 µM [41]: -7.3 ± 0.1%
- inhibition at 1 µM [42]: -10.6 ± 0.6%
- inhibition at 1 µM [43]: -17.1 ± 0.2%
